Results reported in patent publication US20110177161A1, “PHARMACEUTICAL COMPOSITIONS OF [5(S)-(2'-HYDROXYETHOXY)-20(S)-CAMPTOTHECIN” (DR. REDDY'S LABORATORIES LIMITED, priority 2007, published 2011).

Tests used:
[1] = system: Saos-2 cells over expressing non-functional BCRP mut#10; test: cells; type: cell-based, human; conditions: for IC50: Homo sapiens, SAOS-2, 144 h, read-out: BCRP mut#10 (IC50 (nM))
Procedure: (§1) The anticancer effect of 5(S)-(2′-hydroxyethoxy)-20(S)-camptothecin & 5(R)-(2′-hydroxyethoxy)-20(S)-camptothecin were evaluated versus the racemate 5(RS)-(2′-hydroxyethoxy)-20(S)-camptothecin on Saos-2 cells over expressing functional BCRP#4 and non-functional BCRP mut#10. The human osteosarcoma cell line, Saos-2, was obtained from ATCC (American Type Culture Collection, Cat#HTB-85, Manassas, Va.) and were maintained in DMEM containing 10% fetal bovine serum, 1% penicillin/streptomycin, and 2 mM glutamine. Saos-2 cells were transfected with either BCRP#4 to over express functional BCRP or BCRP#10 to over express non-functional BCRP transporter. The cells were plated in 96-well plates at a density of 1000 cells per each well in a 0.1 ml of medium and allowed to attach overnight. The next morning the medium was gently aspirated and serial dilutions of the compounds to be tested were added. The cells were incubated at 37° C. in a 5% CO2 incubator. After 6 days of exposure to the test drugs, 10µl of Alamar blue was added aseptically to each well and the plates were returned to the incubator for 6 hr. The amount of the fluorescent dye produced was measured on a Cytofluor.RTM. 2300 (Millipore, Bedford, Mass.) using an excitation wavelength of 530 nm and emission wavelength of 590 nm. The relative fluorescence units obtained were used to calculate the percentage growth at each concentration in relation to the untreated control values. From the percentage growth values the IC50 (inhibitory concentration required to inhibit the cell growth by 50% compared to control cells growth) values were derived.

[2] = system: Saos-2 cells over expressing functional BCRP#4; test: cells; type: cell-based, human; conditions: for IC50: Homo sapiens, SAOS-2, 144 h, read-out: BCRP mut#4 (IC50 (nM))
Procedure: as §1

[3] = system: Osteosarcoma-32 xenograft; test: Osteosarcoma tumor regression model; type: in vivo, mice; parameters: key: 6+: Maintained Complete Regression; 5+: Complete Regression; 4+: Partial Regression; 3+: Stable Disease; conditions: 28 mg/kg oral gavage, [(d×5)2]3 schedule
Procedure: (§2) This test was carried out with the use of the methods described in Cancer, Res., Oct. 15, 64:20:7491-9 (2004), and in Clin. Cancer Res., Nov. 15:9 (15):5442-53 (2003).
(§3) All mice bearing subcutaneous (“Sc”) tumors measuring approximately 0.2-1 cm in diameter were treated with a test compound by oral gavage using [(d×5)2]3 schedule. […] The tumor response to the test compound was defined as follows: For individual tumors, partial regression (“PR”) was defined as a volume regression >50%, but with measurable tumor at all times. Complete regression (“CR”) was defined as disappearance of measurable tumor mass at some point within 12 weeks after initiation of therapy. Maintained CR is defined as no tumor re-growth within a 12-week study time frame. This time point was chosen because all studies lasted at least 12 weeks. Mice that died before the end of the 12-week study time, and prior to achieving a response, were considered as failures for tumor response.

[4] = system: Osteosarcoma-17 xenograft; test: Osteosarcoma tumor regression model; type: in vivo, mice; parameters: key: 6+: Maintained Complete Regression; 5+: Complete Regression; 4+: Partial Regression; 3+: Stable Disease; conditions: 28 mg/kg oral gavage, [(d×5)2]3 schedule
Procedure: as §2, §3

Osteosarcoma-2 xenograft = test: Osteosarcoma tumor regression model; type: in vivo, mice; parameters: key: 6+: Maintained Complete Regression; 5+: Complete Regression; 4+: Partial Regression; 3+: Stable Disease; conditions: 28 mg/kg oral gavage, [(d×5)2]3 schedule
Procedure: as §2, §3

[5] = system: Osteosarcoma-29 xenograft; test: Osteosarcoma tumor regression model; type: in vivo, mice; parameters: key: 6+: Maintained Complete Regression; 5+: Complete Regression; 4+: Partial Regression; 3+: Stable Disease; conditions: 28 mg/kg oral gavage, [(d×5)2]3 schedule
Procedure: as §2, §3

[6] = Storage stability of powder composition and capsules (HPLC impurities, assay); type: physicochemical; conditions: Table 13; E* (S-isomer)
Procedure: Samples are analyzed by HPLC using a Chiralcel OD-H 250×4.6 mm column with a 5 μm particle size, at a wavelength of 257 nm using a variable wavelength UV detector, and a mobile phase comprising buffer (0.01 M KH2PO4; pH 3.0±0.1): acetonitrile (68:32% v/v), flow rate 1 ml/minute.
For the determination of the R-isomer impurity in the compositions, conditions essentially similar to the ones described above are used. The mobile phase comprises buffer (pH 3.0±0.1): acetonitrile (76:24% v/v).
For impurities other than the R-isomer the HPLC analysis comprises a Waters HPLC system equipped with a variable wavelength UV detector using symmetry C18, 250 column with a 5 μm particle size, at a wavelength of 257 nm, column temperature of 40° C. The mobile phase comprises
The capsules of Example 9B were charged for stability for about 3 months at different temperature conditions such as 2-8° C., 25° C. and the samples were analyzed by an HPLC procedure described above.
The powder composition of Example 13 was filled in amber coloured glass vials and sealed. Both initial sample and samples exposed at 25° C./60% RH (relative humidity), 30° C./65% RH, 40° C./75% RH for period of 3 days were analyzed for impurities by using HPLC as per the process described above.
The capsules have been exposed at 25° C./60% RH, 30° C./65% RH and 40° C./75% RH for a period of 3 months and data has been tabulated in Table 13.
The capsules packed in HDPE containers were exposed to different stability conditions such as 40° C./75% RH, 30° C./65% RH, 25° C./60% RH, 2-8° C. for about 6-12 months.

Row | Compound | IC50 [1] [nM] | IC50 [2] [nM] | Tumor response [3] | Tumor response [4] | Tumor response (Osteosarcoma-2 xenograft) | Tumor response [5] | A = DRF (5R,20S)-1042 [6] [% Peak Area] | B = Decarboxylated impurity [6] [% Peak Area] | C = Dimer impurity [6] [% Peak Area] | D = Total impurities excluding DRF (5R,20S)-1042 [6] [% Peak Area] | fold more cytotoxic than 5(R)-(2′-hydroxyethoxy)-20(S)-camptothecin [1] [fold] | fold more cytotoxic than 5(R)-(2′-hydroxyethoxy)-20(S)-camptothecin [2] [fold]
1 | CC[C@@]1(O)C(=O)OCc2c1cc1n(c2=O)C(OCCO)c2cc3ccccc3nc2-1 (mixture of isomers) [5(RS)-(2′-hydroxyethoxy)-20(S)-camptothecin, reference compound] | 387 | 1260 | 3+ | 4+ | 5+ | 5+ | – | – | – | – | – | –
2 | CC[C@@]1(O)C(=O)OCc2c1cc1n(c2=O)[C@@H](OCCO)c2cc3ccccc3nc2-1 [DRF-(5S,20S)-1042, 5(S)-(2′-hydroxyethoxy)-20(S)-camptothecin] | 213 | 788 | 6+ | 6+ | 6+ | 6+ | 1.11 | 0.02 | 0.35 | 0.96 | ~6 | > 2.5
